Laboratory results from patent US10836791B2, “Compounds” (DSM IP ASSETS B.V., priority 2016, dated 2020).
Square brackets hold non-standard residues; d marks the D form. * marks the point of attachment. Palmitoyl = CCCCCCCCCCCCCCCC(=O)*; Octanoyl = CCCCCCCC(=O)*; Hexanoyl = CCCCCC(=O)*

Tested on: Normal human epidermal melanocytes, lightly pigmented
Assay: Melanin inhibition in L-tyrosine-stimulated melanocytes (melanogenese assay)
Assay type: cell-based
Conditions: L-tyrosine 1 mM, 240 hours incubation, inhibition compared to stimulated control
Method: Melanocytes (Normal human epidermal melanocytes, lightly pigmented, 8th passage) were seeded in 24 well plates and cultured for 24 hours in culture medium (M254 supplemented with PMA free HMGS-2, Insulin 5 μg/ml, Penicilline 50 U/ml-Streptomycine 50 μg/ml Gentamycine 25 μg/ml) at 37° C., 5% CO2. The medium was then replaced by culture medium containing the test compounds or the reference (lipoic acid at 5 μg/ml) in presence of L-tyrosine (1 mM). The cells were then incubated for 240 hours with 2 renewals of culture medium containing the test compounds or the reference in presence of L-tyrosine after 96 and 168 hours of incubation. A non-stimulated and a stimulated control were performed in parallel. All experimental conditions were performed in n=3, except for control conditions in n=6. At the end of incubation, the culture supernatants were removed and the melanin was extracted by cell lysis using a 0.5 N NaOH solution. The optical density (OD) of each experimental point was measured at 405 nm and melanin quantity was calculated using melanin standards (standard curve from 0.39 to 100 μg/ml melanin). Results were expressed in μg/ml of melanin and in percentage of inhibition compared to stimulated control.

Substance | Melanin inhibition [%] (1 μM test compound) | Melanin inhibition [%] (10 μM test compound)
Palmitoyl-D-Trp-NLe-Leu-NH2 [Ref-3] | 13 | 
H-[dW]-Arg-Leu-NH2 [Ref-5] | −3 | 14
Palmitoyl-[dW]-Met-Leu-NH2 [Ref-1] | 25 | 43
Octanoyl-[dW]-Arg-Leu-NH2 [Ref-4] | 13 | 
Hexanoyl-[dW]-Arg-Leu-NH2 [Ref-2] | 18 | 8
Palmitoyl-D-Trp-Arg-ATMPA-NH2 [Ref-6] | −3 | −12
